Measured values as given in patent publication US20110046147A1, “17BETA-HYDROXYSTEROID DEHYDROGENASE TYPE 1 INHIBITORS FOR THE TREATMENT OF HORMONE-RELATED DISEASES” (UNIVERSITAT DES SAARLANDES, priority 2007, published 2011).

Columns and labels:
CYP2C19 = target: T1, CYP2C19 (Homo sapiens, UniProt P33261); assay: Inhibition of hepatic CYP enzymes: CYP2C19; assay type: biochemical; conditions: read-out: CYP2C19 IC50 (mean ± SD)
T1 construct: purchased Becton Dickinson GmbH (Heidelberg)
Excerpt: (§1) Drug interactions (inhibition of hepatic CYP enzymes): The inhibition of six human hepatic cytochrome P450 enzymes by selected compounds was examined by means of the kit supplied by Becton Dickinson GmbH (Heidelberg).

in vitro = conditions: rat, microsomes, pH 7.4
Experimental: The reaction is started by adding 20 μl of the compound to be tested in 20% AcCN to the microsome/buffer mixture preincubated at 37° C. After 0, 15, 30 and 60 minutes, 200 μl of sample solution is withdrawn and subjected to AcCN precipitation. The isolation of the compounds is effected by adding 200 μl of AcCN that contains the internal standard (1 μM) to 200 μl of sample solution and calibration standard. After shaking for 10 s and centrifugation at 4000 g, an aliquot of the supernatant is subjected to LC-MS/MS. Two controls are included: a positive control with 7-ethoxycoumarin as a reference to verify the microsomal enzyme activity, and a negative control in which microsomes are used that were heated for 25 minutes without a regenerating system, in order to ensure that the loss of substance is actually due to metabolization.
The amount of compound in a sample is expressed as the percent fraction of the compound remaining as compared to time t=0 (100%). The percent fraction is plotted versus time.

17β-HSD2 = target: T2, 17β-HSD2 (Homo sapiens, UniProt P37059); assay: Inhibition of 17β-HSD2 (estradiol to estrone, radio-HPLC); assay type: biochemical; conditions: human placenta microsome fraction, 500 nM estradiol, NAD+ 1500 μM
T2 construct: from tissue; host or cells: human placenta, microsome fraction
T2 sequence (P37059 1-387): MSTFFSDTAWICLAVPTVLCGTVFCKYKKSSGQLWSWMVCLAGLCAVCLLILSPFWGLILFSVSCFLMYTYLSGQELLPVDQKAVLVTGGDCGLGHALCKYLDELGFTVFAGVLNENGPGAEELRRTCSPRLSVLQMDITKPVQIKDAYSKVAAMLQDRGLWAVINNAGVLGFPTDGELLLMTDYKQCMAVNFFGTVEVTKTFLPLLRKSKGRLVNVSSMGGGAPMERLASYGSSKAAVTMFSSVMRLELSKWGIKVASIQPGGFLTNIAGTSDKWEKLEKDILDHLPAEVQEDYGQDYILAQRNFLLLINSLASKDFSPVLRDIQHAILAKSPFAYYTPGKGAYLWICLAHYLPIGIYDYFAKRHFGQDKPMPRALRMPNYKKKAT

CYP1A2 = target: T3, CYP1A2 (Homo sapiens, UniProt P05177); assay: Inhibition of hepatic CYP enzymes: CYP1A2; assay type: biochemical; conditions: read-out: CYP1A2 IC50 (mean ± SD)
T3 construct: purchased Becton Dickinson GmbH (Heidelberg)
T3 sequence (P05177 1-516): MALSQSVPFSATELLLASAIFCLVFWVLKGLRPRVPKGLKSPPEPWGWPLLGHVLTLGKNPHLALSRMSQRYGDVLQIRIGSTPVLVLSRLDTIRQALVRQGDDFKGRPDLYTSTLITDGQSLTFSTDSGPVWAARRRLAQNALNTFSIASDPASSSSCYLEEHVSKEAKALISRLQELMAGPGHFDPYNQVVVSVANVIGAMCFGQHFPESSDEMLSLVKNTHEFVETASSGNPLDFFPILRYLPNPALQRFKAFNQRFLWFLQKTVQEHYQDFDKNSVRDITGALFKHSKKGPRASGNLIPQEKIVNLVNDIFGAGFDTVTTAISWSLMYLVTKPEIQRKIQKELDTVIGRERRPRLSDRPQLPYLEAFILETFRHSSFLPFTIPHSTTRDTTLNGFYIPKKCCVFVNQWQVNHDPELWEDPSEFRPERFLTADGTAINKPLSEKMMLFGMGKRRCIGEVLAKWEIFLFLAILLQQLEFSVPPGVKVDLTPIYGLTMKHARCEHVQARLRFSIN
Excerpt: as §1

CYP3A4 = target: T4, CYP3A4 (Homo sapiens, UniProt P08684); assay: Inhibition of hepatic CYP enzymes: CYP3A4; assay type: biochemical; conditions: read-out: CYP3A4 IC50 (mean ± SD)
T4 construct: purchased Becton Dickinson GmbH (Heidelberg)
T4 sequence (P08684 whole entry): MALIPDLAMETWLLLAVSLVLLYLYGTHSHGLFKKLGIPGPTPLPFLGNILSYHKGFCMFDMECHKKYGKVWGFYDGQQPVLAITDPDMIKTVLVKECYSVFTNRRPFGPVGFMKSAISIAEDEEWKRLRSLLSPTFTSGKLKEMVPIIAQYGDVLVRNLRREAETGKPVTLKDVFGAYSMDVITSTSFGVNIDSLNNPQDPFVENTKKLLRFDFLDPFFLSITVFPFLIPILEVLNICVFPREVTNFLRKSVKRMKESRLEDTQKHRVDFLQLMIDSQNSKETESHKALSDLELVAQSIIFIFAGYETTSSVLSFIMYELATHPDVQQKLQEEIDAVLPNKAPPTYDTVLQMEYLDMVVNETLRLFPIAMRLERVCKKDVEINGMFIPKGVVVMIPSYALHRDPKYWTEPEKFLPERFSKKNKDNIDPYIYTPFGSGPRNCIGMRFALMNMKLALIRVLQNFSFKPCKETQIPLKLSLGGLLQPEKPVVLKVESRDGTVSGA
Excerpt: as §1

CYP2C9 = target: T5, CYP2C9 (Homo sapiens, UniProt P11712); assay: Inhibition of hepatic CYP enzymes: CYP2C9; assay type: biochemical; conditions: read-out: CYP2C9 IC50 (mean ± SD)
T5 construct: purchased Becton Dickinson GmbH (Heidelberg)
T5 sequence (P11712 whole entry): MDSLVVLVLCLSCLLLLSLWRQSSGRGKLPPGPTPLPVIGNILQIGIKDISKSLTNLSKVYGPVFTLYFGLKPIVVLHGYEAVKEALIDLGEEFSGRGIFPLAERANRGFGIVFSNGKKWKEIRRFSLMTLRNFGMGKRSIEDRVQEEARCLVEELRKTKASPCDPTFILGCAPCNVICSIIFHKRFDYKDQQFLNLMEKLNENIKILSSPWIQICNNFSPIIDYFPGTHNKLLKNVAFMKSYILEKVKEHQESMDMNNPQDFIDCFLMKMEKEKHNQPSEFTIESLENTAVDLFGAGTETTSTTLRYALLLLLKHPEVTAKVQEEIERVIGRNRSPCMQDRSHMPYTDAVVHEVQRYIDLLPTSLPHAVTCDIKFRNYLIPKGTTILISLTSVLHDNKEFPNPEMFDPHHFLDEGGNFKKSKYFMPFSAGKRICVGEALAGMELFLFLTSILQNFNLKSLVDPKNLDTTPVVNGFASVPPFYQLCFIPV
Excerpt: as §1

CYP2B6 = target: T6, CYP2B6 (Homo sapiens, UniProt P20813); assay: Inhibition of hepatic CYP enzymes: CYP2B6; assay type: biochemical; conditions: read-out: CYP2B6 IC50 (mean ± SD)
T6 construct: purchased Becton Dickinson GmbH (Heidelberg)
T6 sequence (P20813 1-491): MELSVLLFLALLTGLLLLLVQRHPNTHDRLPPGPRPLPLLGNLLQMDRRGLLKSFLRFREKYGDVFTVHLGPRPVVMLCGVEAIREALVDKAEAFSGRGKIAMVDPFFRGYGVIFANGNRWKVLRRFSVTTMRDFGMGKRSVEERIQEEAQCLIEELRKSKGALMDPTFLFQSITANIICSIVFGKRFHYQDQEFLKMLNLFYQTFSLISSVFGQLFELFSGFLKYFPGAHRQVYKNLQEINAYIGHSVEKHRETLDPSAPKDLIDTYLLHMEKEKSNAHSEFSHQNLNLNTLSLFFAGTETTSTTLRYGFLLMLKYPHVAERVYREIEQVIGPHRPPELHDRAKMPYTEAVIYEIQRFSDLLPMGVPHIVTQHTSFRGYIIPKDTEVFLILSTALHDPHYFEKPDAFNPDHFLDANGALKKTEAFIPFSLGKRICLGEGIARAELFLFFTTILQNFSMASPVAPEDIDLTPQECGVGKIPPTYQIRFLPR
Excerpt: as §1

CYP2D6 = target: T7, CYP2D6 (Homo sapiens, UniProt P10635); assay: Inhibition of hepatic CYP enzymes: CYP2D6; assay type: biochemical; conditions: read-out: CYP2D6 IC50 (mean ± SD)
T7 construct: purchased Becton Dickinson GmbH (Heidelberg)
T7 sequence (P10635 whole entry): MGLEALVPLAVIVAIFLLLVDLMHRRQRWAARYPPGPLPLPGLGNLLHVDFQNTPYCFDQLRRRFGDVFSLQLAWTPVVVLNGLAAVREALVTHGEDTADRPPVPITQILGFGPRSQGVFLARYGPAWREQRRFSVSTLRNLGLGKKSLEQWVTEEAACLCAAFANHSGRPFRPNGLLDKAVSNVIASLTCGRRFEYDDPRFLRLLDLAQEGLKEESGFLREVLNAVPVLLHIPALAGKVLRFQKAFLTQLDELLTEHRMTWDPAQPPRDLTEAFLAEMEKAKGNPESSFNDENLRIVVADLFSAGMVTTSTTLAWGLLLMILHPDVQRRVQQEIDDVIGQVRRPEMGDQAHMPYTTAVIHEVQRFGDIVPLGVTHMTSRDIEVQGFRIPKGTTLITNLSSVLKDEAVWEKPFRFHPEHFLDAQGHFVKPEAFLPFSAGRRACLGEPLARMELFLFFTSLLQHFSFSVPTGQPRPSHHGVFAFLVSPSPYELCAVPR
Excerpt: as §1

T1 sequence (P33261 whole entry): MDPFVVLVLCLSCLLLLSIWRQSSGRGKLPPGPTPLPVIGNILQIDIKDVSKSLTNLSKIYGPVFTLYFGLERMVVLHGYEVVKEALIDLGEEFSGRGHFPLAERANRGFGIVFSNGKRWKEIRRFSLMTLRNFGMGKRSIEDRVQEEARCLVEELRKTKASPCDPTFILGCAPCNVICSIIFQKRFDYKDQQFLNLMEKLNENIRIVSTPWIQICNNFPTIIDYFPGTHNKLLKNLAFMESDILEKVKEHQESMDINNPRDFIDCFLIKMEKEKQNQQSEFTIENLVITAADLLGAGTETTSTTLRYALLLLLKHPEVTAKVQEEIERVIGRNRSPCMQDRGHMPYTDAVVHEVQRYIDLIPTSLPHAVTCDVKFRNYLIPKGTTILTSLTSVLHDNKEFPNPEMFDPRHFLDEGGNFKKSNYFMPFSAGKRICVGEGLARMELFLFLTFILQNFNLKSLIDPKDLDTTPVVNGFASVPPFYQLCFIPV

Row | SMILES | IC50 (CYP2C19) | half-life (in vitro) | IC50 (17β-HSD2) | IC50 (CYP1A2) | IC50 (CYP3A4) | IC50 (CYP2C9) | IC50 (CYP2B6) | IC50 (CYP2D6) | Half life (in vitro)
1 | Oc1ccc(-c2ccsc2-c2cccc(O)c2)cc1 [Compound 28, 3-[3-(4-Hydroxyphenyl)-2-thienyl]phenol] | 3.37 ± 0.12 µM | 10.6 min | 1.8 µM | 5.35 ± 0.24 µM | 7.36 ± 0.49 µM | 2.98 ± 0.02 µM | 18.8 ± 2.05 µM | 6.99 ± 0.02 µM | 
2 | Oc1cccc(-c2ccc(-c3cccc(O)c3)cc2)c1 [Compound 42, [1,1′,4′,1″]Terphenyl-3,3′-diol] | 4.2 ± 0.29 µM |  | 2.3 µM | 17.2 ± 1.16 µM | 2.13 ± 0.13 µM | 1.94 ± 0.1 µM | 7.68 ± 0.92 µM | 22 ± 0.29 µM | 22.7 min
